The record followed here is ChEMBL document CHEMBL4385594, “4(3H)-Quinazolinone derivatives: Promising antibacterial drug leads” (Eur J Med Chem, 2019).

The subject of the test is Helicobacter pylori. Put plainly: Antibacterial activity against Helicobacter pylori assessed as reduction in bacterial cell growth by agar dilution method. It is filed as functional.

Values after ≈ are worked out from the molar mass of the structure shown.

For the compound `Nc1nc(-n2c(-c3ccc([N+](=O)[O-])cc3)nc3ccccc3c2=O)nnc1-c1cccc(Cl)c1Cl`, the MIC (commonly the least concentration at which growth counts as inhibited) came to 25 mg/L (≈ 49.4 µM).
